Data on 24 compounds can be found in patent publication US20230416258A1, “BENZ[…], AND PREPARATION METHOD THEREFOR AND USE THEREOF” (CHINA PHARMACEUTICAL UNIVERSITY, priority 2020, published 2023).

The first experiment relates to KM mice. The experiment can be described thus: Test for drug-induced disappearance of righting reflex in mice. It is filed as in vivo. The following applies: 15 mg/kg, single rapid bolus via tail vein. In short, it runs like this: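 Female KM mice (18–25 g), randomly grouped, given a single rapid bolus via tail vein. Latency (administration to loss of righting reflex) and duration (loss to recovery) recorded.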
The compound `CCSc1nnc2n1-c1ccc(Br)cc1C(c1ccccn1)=N[C@H]2CCC(=O)OC` [Compound 115, methyl (S)-3-(8-bromo-6-(pyridin-2-yl)-1-ethylthio-4H-benzo[f][1,2,4]triazolo[4,3-a][1,4]diazepin-4-yl)propionate] gave a Duration of 1.26 min and a Latency of 0.18 min.
In the same order, the values of `COC(=O)CC[C@@H]1N=C(c2ccccc2F)c2cc(Br)ccc2-n2c(SCCN3CCCCC3)nnc21` [Compound 123, methyl (S)-3-(8-bromo-6-(2-fluorophenyl)-1-(2-((piperidin-1-yl)ethyl)thio)-4H-benzo[f][1,2,4]triazolo[4,3-a][1,4]diazepin-4-yl)propionate] are 1.38 min and 0.30 min.
The compound `COC(=O)CC[C@@H]1N=C(c2ccccc2Cl)c2cc(Cl)ccc2-n2c(SCc3ccncc3)nnc21` [Compound 124, methyl (S)-3-(8-chloro-6-(2-chlorophenyl)-1-(2-((pyridin-4-yl)methyl)thio)-4H-benzo[f][1,2,4]triazolo[4,3-a][1,4]diazepin-4-yl)propionate] came in with a Duration of 7.67 min and a Latency of 0.18 min.

The same experiment, now with this note: 30 mg/kg, single rapid bolus via tail vein.
In the case of `COC(=O)CC[C@@H]1N=C(c2ccccc2Cl)c2cc(Br)ccc2-n2c(SCOP(=O)(O)O)nnc21` [Compound 112, methyl (S)-3-(8-bromo-6-(2-chlorophenyl)-1-(((phosphonooxy)methyl)thio)-4H-benzo[f][1,2,4]triazolo[4,3-a][1,4]diazepin-4-yl)propionate], the Duration is recorded as 19.21 min and the Latency is reported as 0.78 min.
For `COC(=O)CC[C@@H]1N=C(c2ccccn2)c2cc(Br)ccc2-n2c(SC)nnc21` [Compound 114, methyl (S)-3-(8-bromo-6-(pyridin-2-yl)-1-methylthio-4H-benzo[f][1,2,4]triazolo[4,3-a][1,4]diazepin-4-yl)propionate] the same measures were 20.32 min and 0.41 min.
For `CCSc1nnc2n1-c1ccc(Br)cc1C(c1ccccn1)=N[C@H]2CCC(=O)OC` [Compound 115, methyl (S)-3-(8-bromo-6-(pyridin-2-yl)-1-ethylthio-4H-benzo[f][1,2,4]triazolo[4,3-a][1,4]diazepin-4-yl)propionate] the same measures were 5.02 min and 0.13 min.
`COC(=O)CC[C@@H]1N=C(c2ccccn2)c2cc(Br)ccc2-n2c(SCC3CC3)nnc21` [Compound 116, methyl (S)-3-(8-bromo-6-(pyridin-2-yl)-1-((cyclopropylmethyl)thio)-4H-benzo[f][1,2,4]triazolo[4,3-a][1,4]diazepin-4-yl)propionate] showed a Duration of 10.89 min and a Latency of 0.11 min.
For `COC(=O)CC[C@@H]1N=C(c2ccccn2)c2cc(Br)ccc2-n2c(SCCN3CCOCC3)nnc21` [Compound 117, methyl (S)-3-(8-bromo-6-(pyridin-2-yl)-1-((2-morpholinoethyl)thio)-4H-benzo[f][1,2,4]triazolo[4,3-a][1,4]diazepin-4-yl)propionate] the same measures were 2.03 min and 0.14 min.
For `COC(=O)CC[C@@H]1N=C(c2ccccn2)c2cc(Br)ccc2-n2c(SCCCN(C)C)nnc21` [Compound 118, methyl (S)-3-(8-bromo-6-(pyridin-2-yl)-1-(3-((dimethylamino)propyl)thio)-4H-benzo[f][1,2,4]triazolo[4,3-a][1,4]diazepin-4-yl)propionate] the same measures were 15.44 min and 0.32 min.
For `COC(=O)CC[C@@H]1N=C(c2ccccc2F)c2cc(Br)ccc2-n2c(SCCN3CCCC3)nnc21` [Compound 120, methyl (S)-3-(8-bromo-6-(2-fluorophenyl)-1-(2-((pyrrolidin-1-yl)ethyl)thio)-4H-benzo[f][1,2,4]triazolo[4,3-a][1,4]diazepin-4-yl)propionate] the same measures were 19.47 min and 0.29 min.
As for `COC(=O)CC[C@@H]1N=C(c2ccccc2Cl)c2cc(Cl)ccc2-n2c(SCCN3CCCCC3)nnc21` [Compound 122, methyl (S)-3-(8-chloro-6-(2-chlorophenyl)-1-(2-((piperidin-1-yl)ethyl)thio)-4H-benzo[f][1,2,4]triazolo[4,3-a][1,4]diazepin-4-yl)propionate], the Duration stood at 28.06 min and the Latency is on record as 0.30 min.
For `COC(=O)CC[C@@H]1N=C(c2ccccc2F)c2cc(Br)ccc2-n2c(SCCN3CCCCC3)nnc21` [Compound 123, methyl (S)-3-(8-bromo-6-(2-fluorophenyl)-1-(2-((piperidin-1-yl)ethyl)thio)-4H-benzo[f][1,2,4]triazolo[4,3-a][1,4]diazepin-4-yl)propionate] the same measures were 53.03 min and 0.23 min.
Compound `COC(=O)CC[C@@H]1N=C(c2ccccc2Cl)c2cc(Cl)ccc2-n2c(SCc3ccncc3)nnc21` [Compound 124, methyl (S)-3-(8-chloro-6-(2-chlorophenyl)-1-(2-((pyridin-4-yl)methyl)thio)-4H-benzo[f][1,2,4]triazolo[4,3-a][1,4]diazepin-4-yl)propionate] registered a Duration of 13.31 min and a Latency of 0.23 min.
For `COC(=O)CC[C@@H]1N=C(c2ccccc2F)c2cc(Br)ccc2-n2c(SCc3ccncc3)nnc21` [Compound 125, methyl (S)-3-(8-bromo-6-(2-fluorophenyl)-1-(2-((pyridin-4-yl)methyl)thio)-4H-benzo[f][1,2,4]triazolo[4,3-a][1,4]diazepin-4-yl)propionate] the same measures were 7.81 min and 0.19 min.
In the same order, the values of `COC(=O)CC[C@@H]1N=C(c2ccccc2Cl)c2cc(Cl)ccc2-n2c(SCCN3CCC(F)(F)CC3)nnc21` [Compound 127, methyl (S)-3-(8-chloro-6-(2-chlorophenyl)-1-(2-((4,4-difluoropiperidin-1-yl)ethyl)thio)-4H-benzo[f][1,2,4]triazolo[4,3-a][1,4]diazepin-4-yl)propionate] are 18.11 min and 0.43 min.
In the same order, the values of `COC(=O)CC[C@@H]1N=C(c2ccccc2F)c2cc(Br)ccc2-n2c(SCCN3CCC(F)(F)CC3)nnc21` [Compound 128] are 7.98 min and 0.42 min.
`COC(=O)CC[C@@H]1N=C(c2ccccc2Cl)c2cc(Cl)ccc2-n2c(SC(=O)N3CCN(C)CC3)nnc21` [Compound 130, methyl (S)-3-(8-chloro-6-(2-chlorophenyl)-1-(2-(4-methylpiperazine-1-carbonyl)thio)-4H-benzo[f][1,2,4]triazolo[4,3-a][1,4]diazepin-4-yl)propionate] showed a Duration of 18.27 min and a Latency of 0.52 min.
Compound `COC(=O)CC[C@@H]1N=C(c2ccccc2F)c2cc(Br)ccc2-n2c(SC(=O)N3CCN(C)CC3)nnc21` [Compound 131] returned a Duration of 6.84 min and a Latency of 0.56 min.
In the same order, the values of `CCN(CC)CCCSc1nnc2n1-c1ccc(Cl)cc1C(c1ccccc1Cl)=N[C@H]2CCC(=O)OC` [Compound 132, methyl (S)-3-(8-chloro-6-(2-chlorophenyl)-1-(3-((diethylamino)propyl)thio)-4H-benzo[f][1,2,4]triazolo[4,3-a][1,4]diazepin-4-yl)propionate] are 18.05 min and 0.87 min.
In the same order, the values of `COC(=O)CC[C@@H]1N=C(c2ccccc2Cl)c2cc(Cl)ccc2-n2c(SCCN(C)C)nnc21` [Compound 133, methyl (S)-3-(8-chloro-6-(2-chlorophenyl)-1-(2-((dimethylamino)ethyl)thio)-4H-benzo[f][1,2,4]triazolo[4,3-a][1,4]diazepin-4-yl)propionate] are 2.24 min and 0.26 min.
For `COC(=O)CC[C@@H]1N=C(c2ccccc2F)c2cc(Br)ccc2-n2c(SCCN(C)C)nnc21` [Compound 134, methyl (S)-3-(8-bromo-6-(2-fluorophenyl)-1-(2-((dimethylamino)ethyl)thio)-4H-benzo[f][1,2,4]triazolo[4,3-a][1,4]diazepin-4-yl)propionate] the same measures were 6.54 min and 0.27 min.
`O=C(CC[C@@H]1N=C(c2ccccc2Cl)c2cc(Cl)ccc2-n2c1n[nH]c2=S)OCCN1CCOCC1` [Compound 137, (S)-3-(8-chloro-6-(2-chlorophenyl)-1-thio-2,4-dihydro-1H-benzo[f][1,2,4]triazolo[4,3-a][1,4]diazepin-4-yl)propionic acid-2-morpholinoethyl ester] showed a Duration of 21.45 min and a Latency of 0.67 min.
In the same order, the values of `COC(=O)CC[C@@H]1N=C(c2ccccc2Cl)c2cc(Cl)ccc2-n2c(SCCn3ccnc3)nnc21` [Compound 138, methyl (S)-3-(8-chloro-6-(2-chlorophenyl)-1-(2-((1H-imidazol-1-yl)ethyl)thio)-4H-benzo[f][1,2,4]triazolo[4,3-a][1,4]diazepin-4-yl)propionate] are 6.94 min and 0.27 min.
In the same order, the values of `COC(=O)CC[C@@H]1N=C(c2ccccc2F)c2cc(Br)ccc2-n2c(SCCn3ccnc3)nnc21` [Compound 139, methyl (S)-3-(8-bromo-6-(2-fluorophenyl)-1-(2-((1H-imidazol-1-yl)ethyl)thio)-4H-benzo[f][1,2,4]triazolo[4,3-a][1,4]diazepin-4-yl)propionate] are 19.99 min and 0.38 min.
For `COC(=O)CC[C@@H]1N=C(c2ccccc2Cl)c2cc(Cl)ccc2-n2c(SCCn3cccc3)nnc21` [Compound 140, methyl (S)-3-(8-chloro-6-(2-chlorophenyl)-1-(2-((1H-pyrrol-1-yl)ethyl)thio)-4H-benzo[f][1,2,4]triazolo[4,3-a][1,4]diazepin-4-yl)propionate] the same measures were 21.65 min and 0.45 min.

Staying with this experiment, now noted: 60 mg/kg, single rapid bolus via tail vein.
`COC(=O)CC[C@@H]1N=C(c2ccccc2Cl)c2cc(Br)ccc2-n2c(SCOP(=O)(O)O)nnc21` [Compound 112, methyl (S)-3-(8-bromo-6-(2-chlorophenyl)-1-(((phosphonooxy)methyl)thio)-4H-benzo[f][1,2,4]triazolo[4,3-a][1,4]diazepin-4-yl)propionate] registered a Duration of 12.62 min and a Latency of 0.46 min.
In the same order, the values of `COC(=O)CC[C@@H]1N=C(c2ccccc2Cl)c2cc([N+](=O)[O-])ccc2-n2c(SCOP(=O)(O)O)nnc21` [Compound 113, methyl (S)-3-(8-nitro-6-(2-chlorophenyl)-1-(((phosphonooxy)methyl)thio)-4H-benzo[f][1,2,4]triazolo[4,3-a][1,4]diazepin-4-yl)propionate] are 9.49 min and 0.58 min.
For the compound `COC(=O)CC[C@@H]1N=C(c2ccccc2Cl)c2cc(Br)ccc2-n2c(SCCN3CCCC3)nnc21` [Compound 121, methyl (S)-3-(8-bromo-6-(2-chlorophenyl)-1-((2-(pyrrolidin-1-yl)ethyl)thio)-4H-benzo[f][1,2,4]triazolo[4,3-a][1,4]diazepin-4-yl)propionate], the Duration is 16.67 min and the Latency was determined as 0.18 min.
